Measured values: patent US10508120B2, “TYK2 inhibitors and uses thereof” (Nimbus Lakshmi, Inc., priority 2017, dated 2019)

Experiments:
[1] = target: human TYK2 (JH2domain-pseudokinase) (Homo sapiens (Human), UniProt P29597); assay: TYK2 JH2 Domain Binding Assay (KINOMEscan)
Outline: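 Competition binding of a DNA-tagged fusion of human TYK2 JH2 pseudokinase (G556–D888) with NFkB DNA-binding domain, from HEK293 extracts (<0.1 nM final), against immobilised ligand beads; 1 h shaking at room temperature, 0.9% DMSO. Bound kinase quantified by qPCR.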

[2] = target: Tyk2 kinase domain (DH1) (Homo sapiens (Human), UniProt P29597); assay: Tyk2 Radioactive Kinase Assay; format: biochemical; conditions: compound at 10 μM; ATP 10 μM; read-out: Tyk2 JH1% Inhibition @ 10 μM
Outline: (§1)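 Compounds were tested at a single concentration of 10 μM in a radiometric kinase format against each isolated kinase domain. Activity is reported as percent inhibition at that concentration.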

[3] = target: JAK2 kinase domain (JH1) (Homo sapiens (Human), UniProt O60674); assay: JAK2 Radioactive Kinase Assay; format: biochemical; conditions: compound at 10 μM; ATP 10 μM; read-out: JAK2 JH1% Inhibition @ 10 μM
Outline: as §1

human TYK2 (JH2domain-pseudokinase), sequence (P29597 556-888): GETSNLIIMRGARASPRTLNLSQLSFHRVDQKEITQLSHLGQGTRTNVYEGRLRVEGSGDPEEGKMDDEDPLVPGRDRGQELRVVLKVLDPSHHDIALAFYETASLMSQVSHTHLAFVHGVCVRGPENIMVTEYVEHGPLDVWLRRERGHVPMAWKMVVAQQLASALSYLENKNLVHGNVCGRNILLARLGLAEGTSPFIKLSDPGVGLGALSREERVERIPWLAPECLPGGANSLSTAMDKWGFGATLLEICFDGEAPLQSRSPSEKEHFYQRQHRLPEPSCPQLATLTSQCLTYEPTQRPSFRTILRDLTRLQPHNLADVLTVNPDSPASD
JAK2 kinase domain (JH1), sequence (O60674 849-1124): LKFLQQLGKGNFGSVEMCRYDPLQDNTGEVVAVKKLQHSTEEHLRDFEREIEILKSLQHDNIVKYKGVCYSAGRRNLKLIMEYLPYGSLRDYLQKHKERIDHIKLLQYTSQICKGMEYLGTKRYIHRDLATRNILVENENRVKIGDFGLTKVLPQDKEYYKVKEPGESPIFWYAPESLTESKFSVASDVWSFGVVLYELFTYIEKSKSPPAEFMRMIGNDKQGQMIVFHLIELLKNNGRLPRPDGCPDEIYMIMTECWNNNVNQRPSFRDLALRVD
Tyk2 kinase domain (DH1), sequence (P29597 897-1176): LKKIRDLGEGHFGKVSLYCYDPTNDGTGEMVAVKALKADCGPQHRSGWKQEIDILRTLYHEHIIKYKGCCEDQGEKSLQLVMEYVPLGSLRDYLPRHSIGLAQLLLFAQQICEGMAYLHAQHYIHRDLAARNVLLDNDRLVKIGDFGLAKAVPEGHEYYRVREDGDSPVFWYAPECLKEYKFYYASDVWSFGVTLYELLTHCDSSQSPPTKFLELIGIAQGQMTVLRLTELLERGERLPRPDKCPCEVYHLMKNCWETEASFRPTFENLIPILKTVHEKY

Row | Kd [1] [pM] | inhibition at 10 µM [2] [%] | inhibition at 10 µM [3] [%] | Compound
1 | 200 to 1000 | < 50 | < 50 | CNc1cc(Nc2cccnc2O[C@@H]2CCOC2)nc2c(C(=O)NC3CC3)cnn12 [I-172]
2 | 200 to 1000 | < 50 | < 50 | CNc1cc(Nc2cccnc2OC2CCOCC2)nc2c(C(=O)NC3CC3)cnn12 [I-173]
3 | < 200 | < 50 | < 50 | CNc1cc(Nc2cccnc2OC2CCOCC2)nc2c(C(=O)N[C@H]3C[C@H]3F)cnn12 [I-174]
4 | 200 to 1000 | < 50 | < 50 | CNc1cc(Nc2cc(Cl)cn(-c3cn(C4CC4)nc3C)c2=O)nc2c(C(N)=O)cnn12 [I-178]
5 | 200 to 1000 | < 50 | < 50 | CNc1cc(Nc2cc(Cl)cn(-c3cn(C4CC4)nc3C)c2=O)nc2c(C(=O)NC3CCC3)cnn12 [I-179]
6 | < 200 | < 50 | < 50 | CNc1cc(Nc2cc(Cl)cn(-c3cnn(C4CC4)c3C)c2=O)nc2c(C(N)=O)cnn12 [I-180]
7 | 200 to 1000 | < 50 | < 50 | CNc1cc(Nc2cc(Cl)cn(-c3cnn(C4CC4)c3C)c2=O)nc2c(C(=O)NC3CCC3)cnn12 [I-181]
8 | < 200 | < 50 | < 50 | CNc1cc(Nc2cccnc2O[C@H]2C[C@@H](OC)C2)nc2c(C(=O)NC3CCC3)cnn12 [I-183]
9 | 200 to 1000 | < 50 | < 50 | CNc1cc(Nc2cccnc2O[C@H]2C[C@@H](OC)C2)nc2c(C(=O)NC3CC3)cnn12 [I-184]
10 | 200 to 1000 | < 50 | < 50 | CNc1cc(Nc2cccnc2OC2CCOCC2)nc2c(C(=O)NC3CCC3)cnn12 [I-185]
11 | < 200 | < 50 | < 50 | CNc1cc(Nc2cccnc2O[C@H]2C[C@@H](OC)C2)nc2c(C(=O)N[C@H]3C[C@H]3F)cnn12 [I-186]
12 | < 200 | < 50 | < 50 | CNc1cc(Nc2cccnc2O[C@H]2C[C@H](OC)C2)nc2c(C(=O)NC3CCC3)cnn12 [I-187]
13 | < 200 | < 50 | < 50 | CNc1cc(Nc2cccnc2O[C@H]2C[C@H](OC)C2)nc2c(C(=O)NC3CC3)cnn12 [I-188]
14 | < 200 | < 50 | < 50 | CNc1cc(Nc2cccnc2O[C@H]2C[C@H](OC)C2)nc2c(C(=O)N[C@H]3C[C@H]3F)cnn12 [I-189]
15 | < 200 | < 50 | < 50 | CNc1cc(Nc2cccn(C3CCN(CC(F)F)CC3)c2=O)nc2c(C(=O)NC3CC3)cnn12 [I-191]
16 | 200 to 1000 | < 50 | < 50 | CNc1cc(Nc2cccn([C@@H]3CCOC3)c2=O)nc2c(C(N)=O)cnn12 [I-195]
17 | 200 to 1000 | < 50 | < 50 | CNc1cc(Nc2cccn([C@H]3CCOC3)c2=O)nc2c(C(N)=O)cnn12 [I-196]
18 | 200 to 1000 | < 50 | < 50 | CNc1cc(-c2c[nH]c3c(C4CCOCC4)cc(Cl)cc23)nc2c(C(=O)NC3CC3)cnn12 [I-197]
19 | 200 to 1000 | < 50 | < 50 | CNc1cc(Nc2cccnc2OC(CO)CO)nc2c(C(=O)NC3CC3)cnn12 [I-199]
20 | 200 to 1000 | < 50 | < 50 | CNc1cc(Nc2cccnc2OC(CO)CO)nc2c(C(=O)N[C@H]3C[C@H]3F)cnn12 [I-200]
21 | < 200 | < 50 | < 50 | CNc1cc(Nc2cccnc2OC(CO)CO)nc2c(C(=O)NC3CCC3)cnn12 [I-201]
22 | 200 to 1000 | < 50 | < 50 | CNc1cc(Nc2cccn([C@@H]3CCOC3)c2=O)nc2c(C(=O)NC3CC3)cnn12 [I-202]
23 | < 200 | < 50 | < 50 | CNc1cc(Nc2cccn([C@H]3CCOC3)c2=O)nc2c(C(=O)NC3CC3)cnn12 [I-203]
24 | 200 to 1000 | < 50 | < 50 | CNc1cc(Nc2cccn([C@@H]3CCOC3)c2=O)nc2c(C(=O)NC3CCC3)cnn12 [I-204]
25 | < 200 | < 50 | < 50 | CNc1cc(Nc2cccn([C@H]3CCOC3)c2=O)nc2c(C(=O)NC3CCC3)cnn12 [I-205]

Row | Kd [1] [pM] | inhibition at 10 µM [2] [%] | inhibition at 10 µM [3] [%] | Compound
26 | 1000 to 10000 | < 50 | < 50 | Cc1c(Nc2cccnc2OC(C)C)nc2c(C(=O)NC3CC3)cnn2c1N [I-207, 7-amino-N-cyclopropyl-5-((2-isopropoxypyridin-3-yl)amino)-6-methylpyrazolo[1,5-a]pyrimidine-3-carboxamide]
27 | 1000 to 10000 | < 50 | < 50 | Cc1c(Nc2cccnc2OC(C)C)nc2c(C(=O)NC3CCC3)cnn2c1N [I-208, 7-amino-N-cyclobutyl-5-((2-isopropoxypyridin-3-yl)amino)-6-methyl pyrazolo[1,5-a]pyrimidine-3-carboxamide]
28 | 200 to 1000 | < 50 | < 50 | CNc1cc(Nc2cc(F)cnc2OC(C)C)nc2c(C(=O)NC3CC3)cnn12 [I-209]
29 | 200 to 1000 | < 50 | < 50 | CNc1cc(Nc2cc(F)cnc2OC(C)C)nc2c(C(=O)NC3CCC3)cnn12 [I-210]
30 | 200 to 1000 | < 50 | < 50 | CNc1cc(Nc2cc(C)cnc2OC(C)C)nc2c(C(=O)NC3CC3)cnn12 [I-212]
31 | 1000 to 10000 | < 50 | < 50 | CNc1cc(Nc2cc(C)cnc2OC(C)C)nc2c(C(=O)NC3CCC3)cnn12 [I-213]
32 | < 200 | < 50 | < 50 | CNc1cc(Nc2cc(C)cnc2OC(C)C)nc2c(C(=O)N[C@H]3C[C@H]3F)cnn12 [I-214]
33 | < 200 | < 50 | < 50 | CNc1cc(Nc2cccnc2OCCOC)nc2c(C(=O)NC3CC3)cnn12 [I-218]
34 | 1000 to 10000 | < 50 | < 50 | CNc1cc(Nc2cccnc2OC2CCCCC2)nc2c(C(=O)NC3CC3)cnn12 [I-221]
35 | 1000 to 10000 | < 50 | < 50 | CNc1cc(Nc2cccnc2OC2CCCCC2)nc2c(C(=O)NC3CCC3)cnn12 [I-226]
36 | 200 to 1000 | < 50 | < 50 | CNc1cc(Nc2cccnc2OC2CCCCC2)nc2c(C(=O)N[C@H]3C[C@H]3F)cnn12 [I-227]
37 | 1000 to 10000 | < 50 | < 50 | CNc1cc(Nc2cccnc2OC2COC2)nc2c(C(=O)NC3CC3)cnn12 [I-228]
38 | 200 to 1000 | < 50 | < 50 | CNc1cc(Nc2cccn(C3CCN(CC(F)F)CC3)c2=O)nc2c(C(=O)N[C@H]3C[C@H]3F)cnn12 [I-230]
39 | 200 to 1000 | < 50 | < 50 | CNc1cc(Nc2cccnc2O[C@H]2CC[C@H](O)CC2)nc2c(C(=O)NC3CC3)cnn12 [I-231]
40 | < 200 | < 50 | < 50 | CNc1cc(Nc2cccnc2O[C@H]2CC[C@H](O)CC2)nc2c(C(=O)NC3CCC3)cnn12 [I-232]
41 | < 200 | < 50 | < 50 | CNc1cc(Nc2cccnc2O[C@H]2CC[C@H](O)CC2)nc2c(C(=O)N[C@H]3C[C@H]3F)cnn12 [I-239]
42 | < 200 | < 50 | < 50 | CNc1cc(Nc2cccn(-c3ccc(C4CC4)nn3)c2=O)nc2c(C(=O)NC3CC3)cnn12 [I-241]
43 | < 200 | < 50 | < 50 | CNc1cc(Nc2cccn(-c3nccs3)c2=O)nc2c(C(=O)NC3CCC3)cnn12 [I-242]
44 | < 200 | < 50 | < 50 | CNc1cc(Nc2cccn(-c3ccc(F)cc3)c2=O)nc2c(C(=O)NCC(C)(C)CO)cnn12 [I-245]
45 | 200 to 1000 | < 50 | < 50 | CNc1cc(Nc2cccnc2O[C@H]2CC[C@H](OC)CC2)nc2c(C(=O)NC3CC3)cnn12 [I-247]
46 | 200 to 1000 | < 50 | < 50 | CNc1cc(Nc2cccnc2O[C@H]2CC[C@H](OC)CC2)nc2c(C(=O)NC3CCC3)cnn12 [I-248]
47 | < 200 | < 50 | < 50 | CNc1cc(Nc2cccnc2O[C@H]2CC[C@H](OC)CC2)nc2c(C(=O)N[C@H]3C[C@H]3F)cnn12 [I-249]
48 | < 200 | < 50 | < 50 | CNc1cc(Nc2cc(C)cn(-c3ccn(C)n3)c2=O)nc2c(C(=O)NC3CCC3)cnn12 [I-251]
49 | 1000 to 10000 | < 50 | < 50 | CNc1cc(-c2cn(C(C)C)c3ncc(C)cc23)nc2c(C(=O)NC3CC3)cnn12 [I-252]

Row | Compound | Kd [1] [pM] | inhibition at 10 µM [2] [%] | inhibition at 10 µM [3] [%]
50 | CNc1cc(Nc2cccn(-c3cccc(C)n3)c2=O)nc2c(C(=O)NC3CC3)cnn12 [I-237] | < 200 | < 50 | < 50
